Consider eleven compounds from ChEMBL document CHEMBL1201862, “PubChem BioAssay data set” (2004).

SMILES strings stand for the structures.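 Five compound concentrations were applied to cells in 96-well plates for 48 hours; endpoints were derived by simple linear interpolation of the resulting dose-response curve. GI50: concentration for 50% inhibition of growth.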 The source made the active and inactive calls. Rule as the data show it: active = GI50 up to about 1.1 µM and inactive = higher.

Among the test systems are OVCAR-3; HCT-116; IGROV-1; Hs-578T; SF-268; MDA-MB-435; MDA-MB-231; NCI/ADR-RES; 786-0; T47D; UO-31; LOX IMVI; HOP-92; SF-295; KM12; SN12C; CAKI-1; SNB-75; SF-539; HCC 2998.
Assay in all cases: NCI tumour cell line growth inhibition, 48 h

On to `CCC1c2[nH]c3ccccc3c2C[C@H]2C(=O)NC(Cc3c[nH]c4ccccc34)C(=O)N12` (stereo partly specified), for which the GI50 is 18.2 µM (inactive) in the assay with OVCAR-3; 18 µM (inactive) with HCT-116; 24.4 µM (inactive) with IGROV-1; 22.6 µM (inactive) with Hs-578T; 29.7 µM (inactive) with SF-268; 19.7 µM (inactive) in the assay on MDA-MB-435. Besides, the GI50 in the assay with MDA-MB-231 was 17.1 µM (inactive); in the assay on NCI/ADR-RES, 27.9 µM (inactive); in the assay with 786-0 it was 23.4 µM (inactive); with T47D, 26.4 µM (inactive); in the assay on UO-31, 27.7 µM (inactive); in the assay on LOX IMVI, 22.1 µM (inactive). Also, the GI50 in the assay with HOP-92 was 26.5 µM (inactive); with SF-295, 17.3 µM (inactive); in the assay on KM12 it was 18.9 µM (inactive); with SN12C, 22.5 µM (inactive); in the assay with CAKI-1 it was 28.8 µM (inactive).

Turning to `Cc1ccc(C)c(NC(=O)NCc2ccc(Cl)cc2)c1`, the GI50 with OVCAR-3 was 28.5 µM (inactive); in the assay with HCT-116, 35.3 µM (inactive); in the assay on IGROV-1, 41.9 µM (inactive); with Hs-578T it was 25.5 µM (inactive); in the assay on SF-268, 38.9 µM (inactive); in the assay with MDA-MB-435 it was > 100 µM (inactive). Besides, the GI50 is 20 µM (inactive) in the assay with MDA-MB-231; > 58.1 µM (inactive) with NCI/ADR-RES; 20.6 µM (inactive) in the assay with 786-0; 43.7 µM (inactive) in the assay on T47D; 31 µM (inactive) in the assay with UO-31; > 100 µM (inactive) in the assay with LOX IMVI. Further, the GI50 is 18.3 µM (inactive) with HOP-92; 16.7 µM (inactive) in the assay on SF-295; 87.3 µM (inactive) in the assay on KM12; 36.3 µM (inactive) in the assay on SN12C; 2.24 µM (inactive) in the assay on SNB-75; 27.2 µM (inactive) in the assay on CAKI-1. For the same compound, the GI50 in the assay on SF-539 was > 100 µM (inactive).

Turning to `COC(=O)Nc1nc2cc(NS(=O)(=O)c3cccs3)ccc2[nH]1`, the GI50 is 14.6 µM (inactive) in the assay with OVCAR-3; 18.4 µM (inactive) in the assay on HCT-116; 10.9 µM (inactive) with IGROV-1; 10.4 µM (inactive) with Hs-578T; 38.3 µM (inactive) in the assay on SF-268; 3.62 µM (inactive) in the assay on MDA-MB-435. For the same compound, the GI50 in the assay on MDA-MB-231 is 31 µM (inactive); with NCI/ADR-RES, 25.1 µM (inactive); in the assay with 786-0, 34.3 µM (inactive); in the assay with T47D it was 28.7 µM (inactive); with UO-31 it was 30.1 µM (inactive); in the assay on LOX IMVI it was 36.3 µM (inactive). Also, the GI50 in the assay on HOP-92 was 16.3 µM (inactive); in the assay with SF-295, 24.9 µM (inactive); in the assay with KM12, 13.7 µM (inactive); with SN12C, 39.1 µM (inactive); in the assay on SNB-75, 20.7 µM (inactive); with CAKI-1, 30.4 µM (inactive). In addition, in the assay on SF-539, the GI50 is 29.2 µM (inactive).

On to `Cn1c(C(C)(C)OC(=O)Oc2ccccc2)cnc1[N+](=O)[O-]`, for which the GI50 in the assay on OVCAR-3 was 93.5 µM (inactive); with HCT-116 it was 92.5 µM (inactive); in the assay on IGROV-1, 55.6 µM (inactive); with Hs-578T, > 100 µM (inactive); with SF-268 it was > 100 µM (inactive); in the assay on MDA-MB-435 it was > 100 µM (inactive). Further, the GI50 in the assay on MDA-MB-231 is 26.1 µM (inactive); with NCI/ADR-RES, > 100 µM (inactive); in the assay on 786-0 it was > 100 µM (inactive); in the assay with T47D, > 100 µM (inactive); in the assay on UO-31, > 100 µM (inactive); in the assay with HOP-92, > 100 µM (inactive). Moreover, the GI50 in the assay on SF-295 is > 100 µM (inactive); in the assay with KM12 it was 58.6 µM (inactive); in the assay with SN12C, 19.7 µM (inactive); in the assay on SNB-75 it was > 100 µM (inactive); in the assay with CAKI-1 it was > 100 µM (inactive); in the assay on SF-539 it was > 100 µM (inactive).

As for `CCOC(=O)CSc1nnc2cc(CN3CCCC3)c(-c3ccc(Cl)cc3)nn12`, the GI50 is > 100 µM (inactive) in the assay on OVCAR-3; > 100 µM (inactive) in the assay on HCT-116; > 100 µM (inactive) in the assay with IGROV-1; > 100 µM (inactive) in the assay on Hs-578T; > 100 µM (inactive) with SF-268; 72.9 µM (inactive) in the assay with MDA-MB-435. Further, the GI50 is > 100 µM (inactive) with MDA-MB-231; > 100 µM (inactive) in the assay with NCI/ADR-RES; 92.3 µM (inactive) in the assay with 786-0; 57.5 µM (inactive) in the assay on T47D; > 100 µM (inactive) in the assay on UO-31; > 100 µM (inactive) in the assay with LOX IMVI. Moreover, the GI50 with HOP-92 is > 100 µM (inactive); in the assay on SF-295, > 100 µM (inactive); in the assay with KM12, > 100 µM (inactive); with SN12C, > 100 µM (inactive); in the assay on SNB-75, 85.5 µM (inactive); in the assay on CAKI-1 it was > 100 µM (inactive). Moreover, the GI50 in the assay with SF-539 is 60.1 µM (inactive).

For the compound `C=C1CCC2CC1C(C(=O)c1c[nH]c3ccccc13)=NC2(C)C` (stereo unspecified), the GI50 with OVCAR-3, with HCT-116, in the assay with IGROV-1, with Hs-578T, with SF-268 and in the assay on MDA-MB-435 was > 100 µM (inactive) each time. The GI50 was > 100 µM (inactive) in the assay with MDA-MB-231; > 100 µM (inactive) in the assay with NCI/ADR-RES; > 100 µM (inactive) with 786-0; 48.2 µM (inactive) with T47D; > 100 µM (inactive) with UO-31; > 100 µM (inactive) in the assay on LOX IMVI. For the same compound, the GI50 in the assay on KM12, in the assay with SN12C, with SNB-75, in the assay with CAKI-1, in the assay with HCC 2998 and in the assay on SF-539 was > 100 µM (inactive) each time.

On to `COc1cc(-c2cc(OC)c(OC)c3ccc(Br)cc23)c2cc(Br)ccc2c1OC`, for which the GI50 is 21 µM (inactive) in the assay on OVCAR-3; 12.4 µM (inactive) with HCT-116; 23.9 µM (inactive) in the assay on IGROV-1; 38.8 µM (inactive) with Hs-578T; 20.2 µM (inactive) in the assay with SF-268; 23.7 µM (inactive) in the assay on MDA-MB-435. The GI50 was 22.4 µM (inactive) in the assay on MDA-MB-231; 33.7 µM (inactive) in the assay on NCI/ADR-RES; 19.8 µM (inactive) in the assay on 786-0; 31.6 µM (inactive) in the assay on T47D; 41.8 µM (inactive) in the assay on UO-31; 19.3 µM (inactive) in the assay on LOX IMVI. The GI50 in the assay on HOP-92 is 18.9 µM (inactive); with SF-295, 18.6 µM (inactive); in the assay on SN12C, 26 µM (inactive); with CAKI-1, 47.4 µM (inactive); in the assay with HCC 2998, 36.1 µM (inactive); in the assay with SF-539 it was 21.5 µM (inactive).

Turning to `NCCCC(N)C(=O)O` (stereo unspecified), the GI50 in the assay with OVCAR-3, in the assay with HCT-116, with IGROV-1, with Hs-578T, in the assay on SF-268 and in the assay with MDA-MB-435 was > 100 µM (inactive) each time. For the same compound, the GI50 with MDA-MB-231, in the assay with NCI/ADR-RES, in the assay on 786-0, in the assay on T47D, in the assay on UO-31 and in the assay with LOX IMVI was > 100 µM (inactive) in each case. For the same compound, the GI50 in the assay on HOP-92, with SF-295, with KM12, with SN12C, with SNB-75 and with CAKI-1 was > 100 µM (inactive) each time.

As to `Cc1cc2c(cc1C(=O)c1ccc(N)cc1)OCO2`, the GI50 in the assay with OVCAR-3 was 0.347 µM (active); in the assay with HCT-116, 52 µM (inactive); in the assay on IGROV-1 it was 33.5 µM (inactive); in the assay with Hs-578T it was 48 µM (inactive); in the assay on SF-268, 31.2 µM (inactive); in the assay on MDA-MB-435, 7.82 µM (inactive). Moreover, the GI50 was 34.1 µM (inactive) in the assay on MDA-MB-231; 25.1 µM (inactive) in the assay on NCI/ADR-RES; 34.6 µM (inactive) in the assay on 786-0; 28 µM (inactive) in the assay with T47D; 77.8 µM (inactive) in the assay on UO-31; 33.2 µM (inactive) in the assay on HOP-92. For the same compound, the GI50 is 21.9 µM (inactive) in the assay on SF-295; 21.4 µM (inactive) in the assay on KM12; 49.5 µM (inactive) in the assay with SN12C; 24.5 µM (inactive) in the assay on CAKI-1; 27.2 µM (inactive) in the assay on SF-539.

Take `CC(=O)OC(C#N)CC(C)(C)/[N+]([O-])=[N+](\[O-])C(C)(C)CC(C#N)OC(C)=O` (stereo unspecified): the GI50 in the assay on OVCAR-3 was 16.6 µM (inactive); in the assay on HCT-116, 6.7 µM (inactive); in the assay with IGROV-1, 10.8 µM (inactive); with Hs-578T, 17.3 µM (inactive); in the assay with SF-268 it was 10.8 µM (inactive); with MDA-MB-435, 16.1 µM (inactive). The GI50 was 14.7 µM (inactive) with MDA-MB-231; 22.4 µM (inactive) in the assay with NCI/ADR-RES; 10.6 µM (inactive) with 786-0; 15.5 µM (inactive) with T47D; 19.5 µM (inactive) with UO-31; 11.1 µM (inactive) in the assay with LOX IMVI. Moreover, the GI50 with HOP-92 is 12.3 µM (inactive); in the assay with SF-295 it was 38.3 µM (inactive); in the assay on KM12 it was 14.5 µM (inactive); with SN12C it was 12.9 µM (inactive); in the assay on SNB-75, 15.1 µM (inactive); with CAKI-1, 15 µM (inactive). Also, in the assay with HCC 2998, the GI50 is 16.1 µM (inactive).

As to `CN(C)N1C(=C(C#N)C#N)C(c2ccccc2)CC1C#N` (stereo unspecified), the GI50 in the assay with HCT-116, in the assay with IGROV-1, in the assay on Hs-578T, in the assay with SF-268, with MDA-MB-435 and with MDA-MB-231 was > 100 µM (inactive) each time. For the same compound, the GI50 with NCI/ADR-RES, in the assay on 786-0, in the assay on T47D, with UO-31, with LOX IMVI and in the assay on HOP-92 was > 100 µM (inactive) each time. Moreover, the GI50 in the assay on SF-295 is > 100 µM (inactive); in the assay with KM12, > 100 µM (inactive); in the assay on SN12C, > 100 µM (inactive); in the assay on SNB-75, 57.8 µM (inactive); with CAKI-1, > 100 µM (inactive); in the assay with HCC 2998, > 100 µM (inactive). The GI50 in the assay with SF-539 is > 100 µM (inactive).
